Laboratory results from patent US11607418B2, “Methods of treating SARS-CoV-2 infections” (Tyme, Inc., priority 2020, dated 2023).
Converted amounts (≈) assume the structure as drawn.

What was measured:
[1] = system: SARS-CoV-2 (USA-WA1/2020 strain); experiment: SARS-CoV-2 neutralization assay, cytopathic effects (CPE) in Vero E6 cells; format: cell-based; conditions: for Day 2 CPE / Day 4 CPE: 1.25 mg/mL, five replicate wells
[2] = system: SARS-CoV-2 infection / COVID-19; experiment: TUDCA capsules taken by persons with or exposed to COVID-19; format: in vivo; conditions: 500 mg capsule twice per day
[3] = pre-incubation with virus 60 minutes
[4] = simultaneous addition of drug and virus, ~100 TCID50/well

SMILES: C[C@H](CCC(=O)NCCS(=O)(=O)[O-])[C@H]1CC[C@H]2[C@@H]3[C@@H](O)C[C@@H]4C[C@H](O)CC[C@]4(C)[C@H]3CC[C@]12C.[Na+] [Sodium TUDCA]
- Day 2 CPE [1, 3]: no CPE
- Day 2 CPE [1, 4]: no CPE
- Day 4 CPE [1, 4]: no CPE

SMILES: CC(CCC(=O)NCCS(=O)(=O)O)C1CCC2C3C(O)CC4CC(O)CCC4(C)C3CCC12C (stereo not shown) [TUDCA acid, tauroursodeoxycholic acid]
- EC50 ([1]; Severe acute respiratory syndrome coronavirus 2, Vero C1008, calculated by the Quest Graph EC50 Calculator, inhibition of SARS-CoV-2 CPE in Vero E6 cells): 980 µg/mL (≈ 1960 µM)
- Day 2 CPE [1, 3]: no CPE
- Day 2 CPE [1, 4]: no CPE
- Day 4 CPE [1, 4]: no CPE

SMILES: CC(CCC(=O)NCCS(=O)(=O)O)C1CCC2C3C(O)CC4CC(O)CCC4(C)C3CCC12C (stereo not shown) [TUDCA, tauroursodeoxycholic acid]
- Health outcome of member who tested positive for SARS-CoV-2 with COVID-19 symptoms ([2]; Example 2, oral, one rescue squad member): health returned to normal
- COVID-19 symptoms despite repeated exposure to COVID-19 patients ([2]; Example 2, twelve rescue squad members, at least 3 months): None of the other twelve members have presented with COVID-19 symptoms
- Health outcome of subject presenting with COVID-19 symptoms ([2]; Example 3, one subject): health returned to normal
